# Results taken from paper PMC3640414 (Journal of Medicinal Chemistry, 2013).
# pIC50: −log10 of the molar value. Read-outs that look alike come from different tables or passages of the source.
# Columns and labels:
# [1] = biological target: T1, BRD4(1) (Homo sapiens, UniProt O60885); test: AlphaScreen peptide displacement assay (ALPHA), BRD4(1); type: binding
# T1 construct: amplify the N-terminal bromodomain region of the protein; made in house
# [2] = biological target: T2, CREBBP bromodomain (Homo sapiens, UniProt Q92793); test: AlphaScreen peptide displacement assay (ALPHA), CREBBP; type: binding; details: 25 μM compound
# T2 construct: made in house
# T2 sequence (Q92793 1085-1192 limits assumed): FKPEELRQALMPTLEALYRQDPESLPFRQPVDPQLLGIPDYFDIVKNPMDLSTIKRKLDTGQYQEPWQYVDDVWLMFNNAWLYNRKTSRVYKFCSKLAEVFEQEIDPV
# [3] = biological target: T3, ATAD2 (Homo sapiens, UniProt Q6PL18); test: ALPHA selectivity panel, ATAD2; type: binding; details: 25 μM compound, ALPHA assay
# T3 construct: the bromodomains from ATAD2, BAZ1A, BAZ2A, BAZ2B, BRD9, BRPF3, CECR2, GCN5L2, PHIP(1), PB1(1), and TIF1α; made in house
# T3 sequence (Q6PL18 980-1092 limits assumed): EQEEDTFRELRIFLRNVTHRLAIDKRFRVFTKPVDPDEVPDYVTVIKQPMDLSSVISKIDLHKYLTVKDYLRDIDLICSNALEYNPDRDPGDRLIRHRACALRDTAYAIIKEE
# Description: (§1) The ALPHA assay was also used to determine the selectivity of 8, 9, and 17, 21–23 for BRD4(1) over the bromodomain of CREBBP (Table 2). […] The selectivity of 8 was further evaluated across a phylogenetically diverse range of bromodomains (Figure 5).
# (§2) Bromodomain AlphaScreen assays were carried out as previously described.[24],[30] All experiments were carried out in duplicate on the same plate.
# [4] = biological target: T4, BAZ1A (Homo sapiens, UniProt Q9NRL2); test: ALPHA selectivity panel, BAZ1A; type: binding; details: 25 μM compound, ALPHA assay
# T4 construct: the bromodomains from ATAD2, BAZ1A, BAZ2A, BAZ2B, BRD9, BRPF3, CECR2, GCN5L2, PHIP(1), PB1(1), and TIF1α; made in house
# T4 sequence (Q9NRL2 1430-1533 limits assumed): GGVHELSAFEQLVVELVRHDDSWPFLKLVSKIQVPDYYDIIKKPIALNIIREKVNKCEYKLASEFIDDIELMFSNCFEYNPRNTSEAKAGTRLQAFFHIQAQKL
# Description: as §1, §2
# [5] = biological target: T5, BAZ2A (Homo sapiens, UniProt Q9UIF9); test: ALPHA selectivity panel, BAZ2A; type: binding; details: 25 μM compound, ALPHA assay
# T5 construct: the bromodomains from ATAD2, BAZ1A, BAZ2A, BAZ2B, BRD9, BRPF3, CECR2, GCN5L2, PHIP(1), PB1(1), and TIF1α; made in house
# T5 sequence (Q9UIF9 1793-1897 limits assumed): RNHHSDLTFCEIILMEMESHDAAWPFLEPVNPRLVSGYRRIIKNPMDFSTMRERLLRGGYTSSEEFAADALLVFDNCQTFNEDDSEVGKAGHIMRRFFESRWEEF
# Description: as §1, §2
# [6] = biological target: T6, BAZ2B (Homo sapiens, UniProt Q9UIF8); test: ALPHA selectivity panel, BAZ2B; type: binding; details: 25 μM compound, ALPHA assay
# T6 construct: the bromodomains from ATAD2, BAZ1A, BAZ2A, BAZ2B, BRD9, BRPF3, CECR2, GCN5L2, PHIP(1), PB1(1), and TIF1α; made in house
# T6 sequence (Q9UIF8 2060-2164 limits assumed): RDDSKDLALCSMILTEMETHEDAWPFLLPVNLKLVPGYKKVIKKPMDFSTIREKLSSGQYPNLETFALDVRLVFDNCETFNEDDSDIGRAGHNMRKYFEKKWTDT
# Description: as §1, §2
# [7] = biological target: T7, BRD9 (Homo sapiens, UniProt Q9H8M2); test: ALPHA selectivity panel, BRD9; type: binding; details: 25 μM compound, ALPHA assay
# T7 construct: the bromodomains from ATAD2, BAZ1A, BAZ2A, BAZ2B, BRD9, BRPF3, CECR2, GCN5L2, PHIP(1), PB1(1), and TIF1α; made in house
# T7 sequence (Q9H8M2 136-240 limits assumed): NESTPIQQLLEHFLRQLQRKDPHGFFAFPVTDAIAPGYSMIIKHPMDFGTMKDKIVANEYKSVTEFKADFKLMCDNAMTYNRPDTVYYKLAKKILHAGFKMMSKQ
# Description: as §1, §2
# [8] = biological target: T8, BRPF3 (Homo sapiens, UniProt Q9ULD4); test: ALPHA selectivity panel, BRPF3; type: binding; details: 25 μM compound, ALPHA assay
# T8 construct: the bromodomains from ATAD2, BAZ1A, BAZ2A, BAZ2B, BRD9, BRPF3, CECR2, GCN5L2, PHIP(1), PB1(1), and TIF1α; made in house
# T8 sequence (Q9ULD4 589-693 limits assumed): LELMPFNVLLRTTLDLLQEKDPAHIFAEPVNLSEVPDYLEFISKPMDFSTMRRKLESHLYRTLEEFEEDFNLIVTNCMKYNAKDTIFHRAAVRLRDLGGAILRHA
# Description: as §1, §2
# [9] = biological target: T9, CECR2 (Homo sapiens, UniProt Q9BXF3); test: ALPHA selectivity panel, CECR2; type: binding; details: 25 μM compound, ALPHA assay
# T9 construct: the bromodomains from ATAD2, BAZ1A, BAZ2A, BAZ2B, BRD9, BRPF3, CECR2, GCN5L2, PHIP(1), PB1(1), and TIF1α; made in house
# T9 sequence (Q9BXF3 434-538 limits assumed): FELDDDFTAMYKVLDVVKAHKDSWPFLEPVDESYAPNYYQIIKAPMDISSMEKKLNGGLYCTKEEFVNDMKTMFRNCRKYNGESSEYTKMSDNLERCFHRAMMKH
# Description: as §1, §2
# [10] = biological target: T10, GCN5L2 (Homo sapiens, UniProt Q92830); test: ALPHA selectivity panel, GCN5L2; type: binding; details: 25 μM compound, ALPHA assay
# T10 construct: the bromodomains from ATAD2, BAZ1A, BAZ2A, BAZ2B, BRD9, BRPF3, CECR2, GCN5L2, PHIP(1), PB1(1), and TIF1α; made in house
# T10 sequence (Q92830 728-832 limits assumed): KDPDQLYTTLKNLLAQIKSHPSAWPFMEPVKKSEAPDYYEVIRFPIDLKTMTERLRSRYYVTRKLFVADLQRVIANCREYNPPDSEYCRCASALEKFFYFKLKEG
# Description: as §1, §2
# [11] = biological target: T11, PHIP(1) (Homo sapiens, UniProt Q8WWQ0); test: ALPHA selectivity panel, PHIP(1); type: binding; details: 25 μM compound, ALPHA assay
# T11 construct: the bromodomains from ATAD2, BAZ1A, BAZ2A, BAZ2B, BRD9, BRPF3, CECR2, GCN5L2, PHIP(1), PB1(1), and TIF1α; made in house
# Description: as §1, §2
# [12] = biological target: T12, PB1(1) (Homo sapiens, UniProt Q86U86); test: ALPHA selectivity panel, PB1(1); type: binding; details: 25 μM compound, ALPHA assay
# T12 construct: the bromodomains from ATAD2, BAZ1A, BAZ2A, BAZ2B, BRD9, BRPF3, CECR2, GCN5L2, PHIP(1), PB1(1), and TIF1α; made in house
# T12 sequence (Q86U86 41-151 limits assumed): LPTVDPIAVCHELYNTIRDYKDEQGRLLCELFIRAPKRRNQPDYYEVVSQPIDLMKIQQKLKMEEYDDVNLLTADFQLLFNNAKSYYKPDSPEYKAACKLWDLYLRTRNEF
# Description: as §1, §2
# [13] = biological target: T13, TIF1α (Homo sapiens, UniProt O15164); test: ALPHA selectivity panel, TIF1α; type: binding; details: 25 μM compound, ALPHA assay
# T13 construct: the bromodomains from ATAD2, BAZ1A, BAZ2A, BAZ2B, BRD9, BRPF3, CECR2, GCN5L2, PHIP(1), PB1(1), and TIF1α; made in house
# T13 sequence (O15164 899-1004 limits assumed): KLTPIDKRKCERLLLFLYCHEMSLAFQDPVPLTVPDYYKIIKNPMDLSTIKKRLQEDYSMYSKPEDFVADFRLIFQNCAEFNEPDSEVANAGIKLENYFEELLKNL
# Description: as §1, §2
# [14] = system: A549 (lung adenocarcinoma) cells; test: MTS cytotoxicity assay, A549 cells; type: cell-based; details: 100 μM, 72 h
# Text: (§3) We also investigated the effects of 8 and 9 in two lung adenocarcinoma cell lines, A549 and H1975. […] H1975 appeared to be somewhat more sensitive to these compounds, a finding confirmed by a clonogenic survival assay (Supporting Information Figure S5).
# (§4) Viability of MV4;11, H549, and H1975 cells was monitored by MTS-based CellTiter 96 AQueous nonradioactive cell proliferation assay (Promega, Madison, WI). Viability of U2OS and HeLa cells was monitored by WST-based cell proliferation kit (Roche, Mannheim, Germany). Further details are provided in Supporting Information
# [15] = system: H1975 (lung adenocarcinoma) cells; test: MTS cytotoxicity assay, H1975 cells; type: cell-based; details: 100 μM, 72 h
# Text: as §3, §4
# [16] = system: U2OS (osteosarcoma) cells; test: WST-1 viability assay, U2OS cells; type: cell-based; details: Homo sapiens, read-out: IC50, U2OS (osteosarcoma)
# [17] = system: HeLa (cervical adenocarcinoma) cells; test: WST-1 viability assay, HeLa cells; type: cell-based; details: Homo sapiens, read-out: IC50, HeLa (cervical adenocarcinoma)
# [18] = system: MV4;11 (AML) cells; test: MTS cytotoxicity assay, MV4;11 cells; type: cell-based; details: Homo sapiens, viability after 72 h
# [19] = viability after 72 h incubation using MTS
structure (smiles),measurement,setting,value
"Cc1noc(C)c1-c1cc(O)cc(C(O)c2ccccc2)c1 (stereo not shown) [Compound 8, 3-(3,5-Dimethylisoxazol-4-yl)-5-(hydroxy(phenyl)methyl)phenol]",inhibition at 25 µM,"[1]; 25 μM compound, ALPHA assay, read-out: inhibition of the BRD4(1) bromodomain",~100%
same,inhibition at 25 µM,[2],~100%
same,percentage inhibition of ATAD2 bromodomain,[3],little affinity
same,inhibition at 25 µM,[3]; read-out: percentage inhibition of ATAD2 bromodomain,< 25%
same,percentage inhibition of BAZ1A bromodomain,[4],little affinity
same,inhibition at 25 µM,[4]; read-out: percentage inhibition of BAZ1A bromodomain,< 25%
same,percentage inhibition of BAZ2A bromodomain,[5],little affinity
same,inhibition at 25 µM,[5]; read-out: percentage inhibition of BAZ2A bromodomain,< 25%
same,percentage inhibition of BAZ2B bromodomain,[6],little affinity
same,inhibition at 25 µM,[6]; read-out: percentage inhibition of BAZ2B bromodomain,< 25%
same,percentage inhibition of BRD9 bromodomain,[7],little affinity
same,inhibition at 25 µM,[7]; read-out: percentage inhibition of BRD9 bromodomain,< 25%
same,percentage inhibition of BRPF3 bromodomain,[8],little affinity
same,inhibition at 25 µM,[8]; read-out: percentage inhibition of BRPF3 bromodomain,< 25%
same,percentage inhibition of CECR2 bromodomain,[9],little affinity
same,inhibition at 25 µM,[9]; read-out: percentage inhibition of CECR2 bromodomain,< 25%
same,percentage inhibition of GCN5L2 bromodomain,[10],little affinity
same,inhibition at 25 µM,[10]; read-out: percentage inhibition of GCN5L2 bromodomain,< 25%
same,percentage inhibition of PHIP(1) bromodomain,[11],little affinity
same,inhibition at 25 µM,[11]; read-out: percentage inhibition of PHIP(1) bromodomain,< 25%
same,percentage inhibition of PB1(1) bromodomain,[12],little affinity
same,inhibition at 25 µM,[12]; read-out: percentage inhibition of PB1(1) bromodomain,< 25%
same,percentage inhibition of TIF1α bromodomain,[13],little affinity
same,inhibition at 25 µM,[13]; read-out: percentage inhibition of TIF1α bromodomain,< 25%
same,effect on viability of A549 cells,[14],markedly reduced the viability
same,effect on viability of H1975 cells,[15],markedly reduced the viability
same,pIC50,[16]; [19],4.72
same,pIC50,[17]; [19],4.62
"CN1CCC(CNc2ccc3ncc(-c4cccc(OC(F)(F)F)c4)n3n2)CC1 [SGI-1176, SGI-1776]",pIC50,[18],7.28
CCOc1cc(-c2c(C)noc2C)cc(C(C)O)c1 (stereo not shown) [Compound 3],selectivity for BRD4(1) over CREBBP bromodomain,[1]; comparison of ALPHA IC50 values,approximately 6 fold
same,ligand efficiency,[1]; for BRD4(1),0.39
same,lipophilic ligand efficiency,[1]; for BRD4(1),3.12
"Cc1sc2c(c1C)C(c1ccc(Cl)cc1)=N[C@@H](CC(=O)OC(C)(C)C)c1nnc(C)n1-2 [(+)-JQ1, reference compound]",pIC50,[16]; 72 h,5.54
same,pIC50,[17]; 72 h,5.68
